Results from patent publication US6383762B1, “Methods of obtaining compounds that interact with a human serotonin (5-HT2) receptor” (Synaptic Pharmaceutical Corporation, priority 1989, dated 2002).

Assays:
[1] = biological target: T1, 5-HT2 receptor in human cortical membranes (Homo sapiens, UniProt P28223); settings: human cortex; footnote 1 Lyon et al. 1987, footnote 2 Hoyer et al. 1986; cited from earlier work
T1 construct: the 5-HT2 receptor in human cortical membranes; host or cells: human cortical membranes
T1 sequence (P28223 whole entry): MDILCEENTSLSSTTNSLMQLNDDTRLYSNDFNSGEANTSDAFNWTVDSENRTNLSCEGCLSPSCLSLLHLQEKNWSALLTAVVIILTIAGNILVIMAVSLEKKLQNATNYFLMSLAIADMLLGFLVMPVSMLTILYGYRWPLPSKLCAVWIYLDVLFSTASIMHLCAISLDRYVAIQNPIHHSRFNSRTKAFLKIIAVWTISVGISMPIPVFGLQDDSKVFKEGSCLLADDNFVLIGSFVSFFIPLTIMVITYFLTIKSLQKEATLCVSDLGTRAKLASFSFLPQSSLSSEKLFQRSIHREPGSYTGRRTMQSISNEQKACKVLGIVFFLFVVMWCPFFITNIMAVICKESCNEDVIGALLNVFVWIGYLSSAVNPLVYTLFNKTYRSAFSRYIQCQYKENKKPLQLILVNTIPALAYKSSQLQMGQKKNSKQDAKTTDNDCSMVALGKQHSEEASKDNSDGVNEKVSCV

[2] = biological target: T2, cloned human 5-HT2 receptor (Homo sapiens, UniProt P28223); assay: Competition for 3H-Ketanserin binding, cloned human 5-HT2 receptor in stably transfected Ltk- cell membranes; settings: cloned human 5-HT2 receptor expressed in Ltk- cells; 3H-Ketanserin radioligand
T2 construct: Clone 6B contained the entire coding region for a 5-HT2 receptor; expressed in transfected cells
T2 sequence (P28223 whole entry): as above
Description: (§1) The total reaction volume was 0.25 ml.
(§2) Subsequent to analysis in transiently transfected cells, the 5-HT2 clone was expressed as a stable transfectant in mouse Ltk^− cells. Further characterization was done on these cells as described above.
Data were analyzed by computer-assisted analysis (Accufit Competition; Lundon Software; Chagrin Falls, Ohio).
(§3) Full saturation analysis was performed on stable cell lines expressing the gene. […] The binding constants were evaluated by computer-assisted nonlinear regression using Accufit (Lundon Software, Chagrin Falls, Ohio). […] Further characterization was accomplished by performing competition experiments for a series of drugs. Analysis of the competition data was accomplished using the computer-assisted nonlinear regression program Accucomp.

[3] = biological target: T3, 5-HT2 receptor in rat cortical membranes (Rattus norvegicus, UniProt P14842); settings: rat cortex; Hoyer et al. 1986; cited from earlier work
T3 construct: rather than in rat cortical membranes; host or cells: rat cortical membranes
T3 sequence (P14842 whole entry): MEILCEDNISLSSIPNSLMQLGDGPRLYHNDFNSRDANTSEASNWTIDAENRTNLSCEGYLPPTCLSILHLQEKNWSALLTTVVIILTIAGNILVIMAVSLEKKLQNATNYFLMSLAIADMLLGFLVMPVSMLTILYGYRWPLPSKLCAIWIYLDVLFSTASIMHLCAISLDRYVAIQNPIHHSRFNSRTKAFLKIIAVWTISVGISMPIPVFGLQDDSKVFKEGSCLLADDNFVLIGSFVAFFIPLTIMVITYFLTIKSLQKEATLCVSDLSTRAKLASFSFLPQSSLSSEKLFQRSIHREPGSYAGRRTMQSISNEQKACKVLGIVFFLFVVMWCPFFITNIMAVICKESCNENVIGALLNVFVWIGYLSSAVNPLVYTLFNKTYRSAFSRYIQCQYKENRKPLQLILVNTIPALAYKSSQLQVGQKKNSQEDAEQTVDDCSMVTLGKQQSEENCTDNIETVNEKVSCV

[4] = biological target: T4, human 5-HT2 receptor (Homo sapiens, UniProt P28223); assay: Radioligand binding to transiently transfected Cos-7 cell membranes; settings: transiently transfected Cos-7 cells
T4 sequence (P28223 whole entry): as the sequence (P28223 whole entry) above

[5] = biological target: T4, human 5-HT2 receptor; assay: Saturation analysis of 3H-Ketanserin binding to stably transfected Ltk- cells; set-up: Clone 6B contained the entire coding region for a 5-HT2 receptor; expressed in transfected cells
Description: as §1, §2, §3

Row | Compound | Ki [1] [nM] | Ki [2] [nM] | Ki [3] [nM] | binding affinity in words [4] | estimated site density [4] | Bmax ([5]; FIG. 4 experiment, stably transfected Ltk- cells) [pmole/mg protein] | Bmax ([5]; Ltk- cells transfected with pMO5-6B) [pm/mg protein]
1 | NCCc1c[nH]c2ccc(C(N)=O)cc12 [5-CT] | 813 | 3030 | 20000 |  |  |  | 
2 | CN1C[C@@H](NS(=O)(=O)N(C)C)C[C@@H]2c3cccc4c3c(cn4C)C[C@H]21 [MESULERGINE] | 158 | 146 ± 5 |  |  |  |  | 
3 | [3H]C([3H])(N1CCC(C(=O)c2ccc(F)cc2)CC1)C([3H])([3H])n1c(=O)[nH]c2ccccc2c1=O [^3H-Ketanserin] |  |  |  | high affinity | 0.95-1.6 pm/mg protein | 0.602 | 0.602±0.07
